Source: US20070082066A1, “Use of zeaxanthin to reduce light hyper-sensitivity, photophobia, and medical conditions relating to light hyper-sensitivity” (priority 2003, published 2007)

Assays:
Format in all cases: in vivo, human
light hyper-sensitivity = assay: Customer and user reports on light hyper-sensitivity after taking zeaxanthin
Source text: When asked about it by the Applicants herein, they offered answers that were usually along the lines of, “I hadn't noticed that. But yeah, you're right. I haven't been wearing my sunglasses as much as I used to. I just don't feel like I need them as much, or as often.”
At roughly the same time, the customer service specialist at ZeaVision also began to receive sporadic comments from people who had purchased zeaxanthin capsules to treat or prevent macular degeneration.
These discoveries led the customer support staff at ZeaVision to begin routinely asking customers about light hyper-sensitivity, if they called in and wanted to discuss the visual improvements they were enjoying after they began taking zeaxanthin.

skin = assay: Indoor tests with medical-grade ultraviolet lamp, before-and-after minimal erythemal dosages; conditions: high-dosage zeaxanthin, winter season
Source text: (§1) Therefore, a patent application entitled “Protection Against Sunburn and Skin Problems with Orally-Ingested High-Dosage Zeaxanthin”, was drafted and filed in the autumn of 2002, as a provisional application, based on anecdotal evidence from several people. […] After those test data became available, the provisional patent application on sunburn prevention was expanded into a utility application.

[1] = Safety and tolerability in users taking zeaxanthin for macular degeneration; conditions: 20 mg/day, thousands of users over the past few years
Source text: If no results are noticed at that level within about 2 to 4 weeks, the person can try a somewhat higher dosage during the next 2-4 weeks.

sunburns = assay: Summertime exposure to direct sunlight, sunburn protection; conditions: oral, about 30 to about 80 mg/day, summer of 2002, direct sunlight
Source text: Instead, this discovery arose out of observations that were made while zeaxanthin was being tried and evaluated by a number of people, to determine whether it could help protect the skin against sunburns. Because of various factors and events described in a separate patent application (Ser. No. 10/356,134, Gierhart et al; the contents of that application are incorporated herein by reference, as though fully set forth herein), the founder of ZeaVision (who is also one of the Inventors herein) became convinced that relatively high dosages of zeaxanthin, in the range of about 30 mg or greater per day, could increase the skin's ability to withstand direct sunlight without suffering a sunburn. Accordingly, several coworkers began taking zeaxanthin at dosages in a range of about 30 to about 80 mg/day, during the summer of 2002, to provide additional evaluation of the earliest results that had been seen.
as §1

[2] = system: migraine or other severe headaches; assay: Customer reports on frequency of migraine or other severe headaches; conditions: a number of customers with migraine or recurrent headaches; zeaxanthin at 10 mg or more per day

CC1=C(/C=C/C(C)=C/C=C/C(C)=C/C=C/C=C(C)/C=C/C=C(C)/C=C/C2=C(C)C[C@@H](O)CC2(C)C)C(C)(C)C[C@H](O)C1 [zeaxanthin]
light hyper-sensitivity, volunteered consumer comments (light hyper-sensitivity; consumers who purchased zeaxanthin capsules to treat or prevent macular degeneration, after vs before taking): suffering less from light hyper-sensitivity | use of sunglasses when driving or outdoors (light hyper-sensitivity; high-dosage zeaxanthin, several people working with ZeaVision, family members and friends, spring of 2003): had stopped using their sunglasses so much | unusual and unpleasant levels of light sensitivity, routine customer questioning (light hyper-sensitivity; nearly all of the roughly 30% of customers who reported light sensitivity, after they began taking zeaxanthin capsules): less severe and less troubling | light sensitivity evaluated separately from vision clarity (light hyper-sensitivity; nearly all patients who had reported increased light sensitivity, zeaxanthin at 10 mg or more per day): improved, significantly | skin-protective effects (minimal erythemal dosages before and after) (skin): strongly confirmed the skin-protective effects | safety and tolerability [1]: safe and well-tolerated | risk of sunburns (sunburns): can indeed reduce the risk of sunburns | frequency of migraine or other severe headaches [2]: didn't seem to be having as many migraine or other severe headaches
